Reference: US10202387B2, “Heterocyclyl linked imidazopyridazine derivatives as PI3KB inhibitors” (Janssen Pharmaceutica NV, priority 2014, dated 2019)

Legend:
MTOR_h = target: T1, MTOR_h (Homo sapiens, UniProt P42345); assay: Enzyme binding assay (KINOMEscan); details: DiscoveRx
T1 construct: purchased DiscoveRx Corporation, San Diego (KINOMEscan service)
Description: (§1) Enzyme Binding Assays (KINOMEscan®)
(§2) Kinase enzyme binding affinities of compounds disclosed herein were determined using the KINOMEscan technology performed by DiscoveRx Corporation, San Diego, Calif., USA (www.kinomescan.com). Table A reports the obtained Kd values (nM), with the Kd being the inhibitor binding constant: […]

PIK3Cα_h = target: T2, PIK3Cα_h (Homo sapiens, UniProt P42336); assay: Enzyme binding assay (KINOMEscan); details: DiscoveRx
T2 construct: purchased DiscoveRx Corporation, San Diego (KINOMEscan service)
Description: as §1, §2

PIK3Cβ_h = target: T3, PIK3Cβ_h (Homo sapiens, UniProt P42338); assay: Enzyme binding assay (KINOMEscan); details: DiscoveRx
T3 construct: purchased DiscoveRx Corporation, San Diego (KINOMEscan service)
Description: as §1, §2

PIK3Cγ_h = target: T4, PIK3Cγ_h (Homo sapiens, UniProt P48736); assay: Enzyme binding assay (KINOMEscan); details: DiscoveRx
T4 construct: purchased DiscoveRx Corporation, San Diego (KINOMEscan service)
Description: as §1, §2

PIK3Cδ_h = target: T5, PIK3Cδ_h (Homo sapiens, UniProt O00329); assay: Enzyme binding assay (KINOMEscan); details: DiscoveRx
T5 construct: purchased DiscoveRx Corporation, San Diego (KINOMEscan service)
T5 sequence (O00329 1-1044): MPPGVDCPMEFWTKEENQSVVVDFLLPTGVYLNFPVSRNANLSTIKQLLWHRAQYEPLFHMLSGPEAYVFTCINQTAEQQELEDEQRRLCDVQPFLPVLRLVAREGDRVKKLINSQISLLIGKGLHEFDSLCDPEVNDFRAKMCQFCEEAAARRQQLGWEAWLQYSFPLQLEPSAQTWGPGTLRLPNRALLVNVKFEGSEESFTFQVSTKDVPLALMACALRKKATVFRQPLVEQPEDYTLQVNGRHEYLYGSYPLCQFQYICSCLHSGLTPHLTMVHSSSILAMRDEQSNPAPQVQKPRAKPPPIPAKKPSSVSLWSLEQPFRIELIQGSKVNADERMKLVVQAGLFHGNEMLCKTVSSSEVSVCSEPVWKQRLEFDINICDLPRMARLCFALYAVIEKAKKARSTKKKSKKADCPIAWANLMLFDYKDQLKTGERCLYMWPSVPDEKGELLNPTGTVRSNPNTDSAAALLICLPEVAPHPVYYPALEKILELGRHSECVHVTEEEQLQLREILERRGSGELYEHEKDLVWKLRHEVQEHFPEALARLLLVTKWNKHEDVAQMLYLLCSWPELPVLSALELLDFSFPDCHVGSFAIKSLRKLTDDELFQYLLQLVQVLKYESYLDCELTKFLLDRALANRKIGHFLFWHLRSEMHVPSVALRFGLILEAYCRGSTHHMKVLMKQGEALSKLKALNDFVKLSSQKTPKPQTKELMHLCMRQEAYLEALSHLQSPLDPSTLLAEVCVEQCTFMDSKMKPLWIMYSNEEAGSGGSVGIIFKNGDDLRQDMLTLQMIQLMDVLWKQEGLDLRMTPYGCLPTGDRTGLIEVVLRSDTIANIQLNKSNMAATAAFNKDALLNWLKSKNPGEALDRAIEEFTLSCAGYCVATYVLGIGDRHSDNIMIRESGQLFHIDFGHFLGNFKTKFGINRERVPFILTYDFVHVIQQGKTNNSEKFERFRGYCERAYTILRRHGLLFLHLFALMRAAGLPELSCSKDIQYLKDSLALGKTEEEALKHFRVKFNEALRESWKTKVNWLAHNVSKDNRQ
Description: as §1, §2

[1] = system: Akt phosphorylated at Ser473 in PC-3 cells; assay: Cellular assay: phosphorylation of Akt (Ser473) in PC-3 cells, MSD ELISA; type: cell-based; details: Homo sapiens, 1 h, 60 min incubation with compound, read-out: IC50 pAkt_S473
Description: (§3) Cellular activity of PI3Kβ inhibitors was determined by quantifying the phosphorylation of Akt in PC-3 cells. Akt phosphorylated at Ser473 and Thr308 were measured using an enzyme-linked immunosorbent assay (ELISA; Meso Scale Discovery (MSD). Gaithersburg, Md.) and specific primary antibodies from MSD.
(§4) On day 1, PC3 cells (ATCC […]) were seeded into PerkinElmer MW96 plates at 25.000 cells per well, in 75 μl complete culture medium (DMEM (Dulbecco's Modified Eagle's Medium) high glucose. AQmedia™, D0819, Sigma-Aldrich) containing 10% heat inactivated FCS (Fetal Bovine Serum) and incubated at 37° C., 5% CO2 during 24 hours. On day 2, compound or DMSO (dimethyl sulfoxide) (0.3%) was added and cells were further incubated for 60 min at 37° C., 5% CO2 in a total volume of 100 μl of medium.
(§5) The phosphoprotein assay was executed according to vendor instructions in the Phospho-Akt (Ser473) Assay Whole Cell Lysate Kit (MSD #K15100D-3) and the Phospho-Akt (Thr308) Assay Whole Cell Lysate Kit (MSD #K151DYD-3) using the lysis, blocking and wash buffer provided.
(§6) Briefly, at the end of the cell treatment period, media were removed by aspiration and adherent cells were lysed in 50 μl ice-cold lysis buffer. MSD plates are supplied pre-coated with capture antibodies for Phospho-Akt (Ser473 and Thr308). After blocking, lysates from tissue culture plates were added and plates were washed. Then, a solution containing the detection antibody (anti-total Akt conjugated with an electrochemiluminescent compound-MSD Sulfo-tag label) was added. The signals were detected using an MSD SECTOR Imager 6000 and are proportional to the phospho-Akt titres.
(§7) Data were processed. The percentage of inhibition was plotted against the log concentration of test compounds, and the sigmoidal log concentration-effect curve of best fit was calculated by nonlinear regression analysis. From these concentration-response curves, the IC50 values were calculated. Five concentrations were used for curve fitting.

[2] = system: Akt phosphorylated at Thr308 in PC-3 cells; assay: Cellular assay: phosphorylation of Akt (Thr308) in PC-3 cells, MSD ELISA; type: cell-based; details: Homo sapiens, 1 h, 60 min incubation with compound, read-out: IC50 pAkt_Thr308
Description: as §3, §4, §5, §6, §7

T4 sequence (P48736 whole entry): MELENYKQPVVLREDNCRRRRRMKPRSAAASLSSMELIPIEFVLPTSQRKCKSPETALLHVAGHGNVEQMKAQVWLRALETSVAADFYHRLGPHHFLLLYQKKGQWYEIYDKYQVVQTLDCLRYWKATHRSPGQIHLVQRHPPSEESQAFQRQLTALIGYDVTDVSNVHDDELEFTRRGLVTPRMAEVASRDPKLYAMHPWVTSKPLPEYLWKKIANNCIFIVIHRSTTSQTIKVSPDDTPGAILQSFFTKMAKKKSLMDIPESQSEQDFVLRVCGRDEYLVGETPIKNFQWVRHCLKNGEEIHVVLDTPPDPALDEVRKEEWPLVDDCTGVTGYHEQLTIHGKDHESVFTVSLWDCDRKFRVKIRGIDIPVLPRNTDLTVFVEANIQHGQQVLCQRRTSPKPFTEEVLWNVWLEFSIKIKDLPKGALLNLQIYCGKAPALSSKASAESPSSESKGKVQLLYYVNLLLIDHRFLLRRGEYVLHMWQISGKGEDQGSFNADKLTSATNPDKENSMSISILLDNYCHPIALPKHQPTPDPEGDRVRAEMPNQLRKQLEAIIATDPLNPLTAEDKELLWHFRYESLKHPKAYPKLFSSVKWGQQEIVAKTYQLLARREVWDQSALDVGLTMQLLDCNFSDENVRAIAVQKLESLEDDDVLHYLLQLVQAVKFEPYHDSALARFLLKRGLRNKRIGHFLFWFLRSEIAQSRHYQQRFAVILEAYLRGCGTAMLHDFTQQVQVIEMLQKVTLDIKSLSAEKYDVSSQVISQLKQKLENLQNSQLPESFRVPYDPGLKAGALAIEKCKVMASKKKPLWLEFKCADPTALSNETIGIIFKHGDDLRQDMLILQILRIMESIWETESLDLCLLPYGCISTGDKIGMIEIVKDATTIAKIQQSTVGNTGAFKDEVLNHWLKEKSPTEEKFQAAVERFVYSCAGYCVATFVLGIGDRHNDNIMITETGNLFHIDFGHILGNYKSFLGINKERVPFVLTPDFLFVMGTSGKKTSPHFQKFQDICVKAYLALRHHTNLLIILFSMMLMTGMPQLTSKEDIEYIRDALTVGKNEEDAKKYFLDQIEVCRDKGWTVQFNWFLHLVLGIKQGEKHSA
T2 sequence (P42336 whole entry): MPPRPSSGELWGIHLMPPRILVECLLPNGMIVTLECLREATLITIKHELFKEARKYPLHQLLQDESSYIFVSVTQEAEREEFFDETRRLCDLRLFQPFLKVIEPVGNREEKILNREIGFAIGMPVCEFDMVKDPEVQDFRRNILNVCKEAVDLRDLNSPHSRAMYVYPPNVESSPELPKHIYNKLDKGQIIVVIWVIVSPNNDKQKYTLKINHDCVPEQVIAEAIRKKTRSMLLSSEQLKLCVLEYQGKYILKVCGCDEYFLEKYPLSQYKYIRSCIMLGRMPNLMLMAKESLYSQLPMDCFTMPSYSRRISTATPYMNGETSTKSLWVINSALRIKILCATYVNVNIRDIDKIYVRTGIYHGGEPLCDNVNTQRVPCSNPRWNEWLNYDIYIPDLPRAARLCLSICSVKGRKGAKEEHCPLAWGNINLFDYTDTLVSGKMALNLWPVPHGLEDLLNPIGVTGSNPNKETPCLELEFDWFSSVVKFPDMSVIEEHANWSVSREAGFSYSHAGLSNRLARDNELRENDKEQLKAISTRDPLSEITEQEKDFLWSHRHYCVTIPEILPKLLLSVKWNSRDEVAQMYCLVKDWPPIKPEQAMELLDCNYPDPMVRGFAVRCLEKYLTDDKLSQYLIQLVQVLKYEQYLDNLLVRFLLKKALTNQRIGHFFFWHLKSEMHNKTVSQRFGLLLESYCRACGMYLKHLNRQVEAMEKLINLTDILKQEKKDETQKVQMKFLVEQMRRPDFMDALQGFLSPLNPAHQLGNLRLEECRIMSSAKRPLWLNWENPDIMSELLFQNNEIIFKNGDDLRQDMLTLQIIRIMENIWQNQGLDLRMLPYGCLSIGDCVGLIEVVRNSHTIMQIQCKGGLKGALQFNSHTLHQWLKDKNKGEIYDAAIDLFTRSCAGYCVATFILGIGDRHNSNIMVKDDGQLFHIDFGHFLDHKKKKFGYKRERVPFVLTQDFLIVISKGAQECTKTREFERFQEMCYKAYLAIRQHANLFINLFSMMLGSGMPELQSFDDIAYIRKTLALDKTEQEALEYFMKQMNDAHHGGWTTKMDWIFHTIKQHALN
T3 sequence (P42338 whole entry): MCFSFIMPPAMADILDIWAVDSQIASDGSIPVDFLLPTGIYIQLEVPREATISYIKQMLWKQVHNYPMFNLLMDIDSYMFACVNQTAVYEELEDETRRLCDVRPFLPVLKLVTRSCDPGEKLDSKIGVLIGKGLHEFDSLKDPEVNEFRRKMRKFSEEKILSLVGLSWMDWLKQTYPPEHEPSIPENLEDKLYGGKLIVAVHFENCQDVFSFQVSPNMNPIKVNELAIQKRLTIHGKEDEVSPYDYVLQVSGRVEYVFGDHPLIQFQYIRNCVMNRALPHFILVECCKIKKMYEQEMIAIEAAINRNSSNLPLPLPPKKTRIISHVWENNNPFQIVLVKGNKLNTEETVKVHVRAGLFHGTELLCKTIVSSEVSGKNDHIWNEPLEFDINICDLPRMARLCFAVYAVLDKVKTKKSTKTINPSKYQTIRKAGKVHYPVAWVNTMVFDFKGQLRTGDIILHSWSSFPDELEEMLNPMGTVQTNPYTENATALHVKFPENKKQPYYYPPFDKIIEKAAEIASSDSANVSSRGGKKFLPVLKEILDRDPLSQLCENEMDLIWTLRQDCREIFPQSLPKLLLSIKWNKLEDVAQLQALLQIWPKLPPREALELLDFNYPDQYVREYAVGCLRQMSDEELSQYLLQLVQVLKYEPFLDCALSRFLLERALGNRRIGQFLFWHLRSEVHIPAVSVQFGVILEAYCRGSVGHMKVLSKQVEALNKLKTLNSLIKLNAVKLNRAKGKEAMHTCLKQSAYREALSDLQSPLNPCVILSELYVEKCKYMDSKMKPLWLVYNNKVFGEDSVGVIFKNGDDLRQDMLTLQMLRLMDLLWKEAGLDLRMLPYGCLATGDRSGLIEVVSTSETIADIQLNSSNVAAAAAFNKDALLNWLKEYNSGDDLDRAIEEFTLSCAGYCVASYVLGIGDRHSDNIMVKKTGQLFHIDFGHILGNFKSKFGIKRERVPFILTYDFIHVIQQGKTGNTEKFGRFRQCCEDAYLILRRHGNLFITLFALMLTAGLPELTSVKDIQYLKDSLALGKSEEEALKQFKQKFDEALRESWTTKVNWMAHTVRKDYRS

| Structure (SMILES) | Kd (MTOR_h) | Kd (PIK3Cα_h) | Kd (PIK3Cβ_h) | Kd (PIK3Cγ_h) | Kd (PIK3Cδ_h) | IC50 [1] | IC50 [2] | melting point |
| --- | --- | --- | --- | --- | --- | --- | --- | --- |
| Cc1c(Cc2c(CN3CC4(C3)CS(=O)(=O)C4)nc3c(-c4ncc[nH]4)cc(N4CCOCC4)nn23)cccc1C(F)(F)F [Compound 20] | 9330 nM | 275 nM | 1.3 nM | 1550 nM | 32 nM | ~34 nM | ~20 nM | 150 °C |
| Cc1c(Cc2c(CC(=O)N3CC(C)NC(C)C3)nc3c(N)cc(N4CCOCC4)nn23)cccc1C(F)(F)F (stereo not shown) [Compound 22] | 10700 nM | 2240 nM | 0.5 nM | 8910 nM | 56 nM | 45 nM | ~26 nM | 110 °C |
| Cc1c(Cc2c(CC(=O)N3CCS(=O)(=O)CC3)nc3c(N)cc(N4CCOCC4)nn23)cccc1C(F)(F)F [Compound 23] | > 30200 nM | 2240 nM | 1.5 nM | > 30200 nM | 240 nM | ~79 nM | ~68 nM | 226 °C |
| Cc1c(Cc2c(CC(=O)N3CC(CO)C3)nc3c(N)cc(N4CCOCC4)nn23)cccc1C(F)(F)F [Compound 24] | 3980 nM | 3160 nM | 0.5 nM | 17000 nM | 52 nM | 49 nM | 15 nM | 130 °C |
| Cc1c(Cc2c(CN3CC(C)NC(C)C3)nc3c(-c4ccn[nH]4)cc(N4CCOCC4)nn23)cccc1C(F)(F)F (stereo not shown) [Compound 25] | 407 nM | 1150 nM | 2 nM | 5250 nM | 98 nM | 214 nM | 234 nM | 159 °C |
| Cc1c(Cc2c(CN3CC4(C3)CS(=O)(=O)C4)nc3c(C(N)=O)cc(N4CCOCC4)nn23)cccc1C(F)(F)F [Compound 26] | > 30200 nM | 692 nM | 3 nM | 10700 nM | 372 nM | 275 nM | ~62 nM | 216 °C |
| Cc1c(Cc2c(CN3CCC4(CCS4(=O)=O)C3)nc3c(N)cc(N4CCOCC4)nn23)cccc1C(F)(F)F (stereo not shown) [Compound 32] | > 30200 nM | 15100 nM | 2.5 nM | > 30200 nM | 251 nM | 91 nM | 74 nM | 214 °C |
| Cc1c(Cc2c(CN3CCC4(CCCCS4(=O)=O)C3)nc3c(N)cc(N4CCOCC4)nn23)cccc1C(F)(F)F (stereo not shown) [Compound 33] | > 30200 nM | 13500 nM | 3 nM | > 30200 nM | 398 nM | 120 nM | 100 nM | 228 °C |
| Cc1c(Cc2c(CNC(=O)[C@@H]3C[C@@H](O)CN3)nc3c(N)cc(N4CCOCC4)nn23)cccc1C(F)(F)F [Compound 36] | 3140 nM | 1390 nM | 0.1 nM | 3000 nM | 5 nM | ~73 nM | ~50 nM | 140 °C |
| Cc1c(Cc2c(COC(=O)CN3CCN(C)CC3)nc3c(N)cc(N4CCOCC4)nn23)cccc1C(F)(F)F [Compound 40b] | 21900 nM | 25100 nM | 2.8 nM | > 30200 nM | 479 nM | 214 nM | 105 nM | 99 °C |
| Cc1c(F)cccc1Cc1c(CN2CC(O)C2)nc2c(N)cc(N3CCOCC3)nn12 [Compound 42] | 1230 nM | 4470 nM | 1.1 nM | 2690 nM | 123 nM | 117 nM | 55 nM | 214 °C |
| Cc1c(F)cccc1Cc1c(CN2CCS(=O)(=O)CC2)nc2c(N)cc(N3CCOCC3)nn12 [Compound 43] | 1380 nM | 2040 nM | 0.4 nM | > 30200 nM | 62 nM | 10 nM | 17 nM | 130 °C |
| CCc1c(F)cccc1Cc1c(CN2CC(O)C2)nc2c(N)cc(N3CCOCC3)nn12 [Compound 44] | 1050 nM | 1700 nM | 5.4 nM | 537 nM | 275 nM | 316 nM | 145 nM | 172 °C |
| CCc1c(F)cccc1Cc1c(CN2CCS(=O)(=O)CC2)nc2c(N)cc(N3CCOCC3)nn12 [Compound 45] | 2000 nM | 2400 nM | 1.1 nM | > 30200 nM | 178 nM | > 513 nM | > 513 nM | 240 °C |
